According to ChEMBL document CHEMBL5120774, “Genome-Mining-Guided Discovery and Characterization of the PKS-NRPS-Hybrid Polyoxyperuin Produced by a Marine-Derived Streptomycete” (2022):
Converted amounts (≈) assume the structure as drawn.

Experiments:
Type in all cases: functional
Escherichia coli = experiment: Antibacterial activity against Escherichia coli ATCC 35218 assessed as inhibition of bacterial growth incubated for 18 hrs by broth microdilution method
Staphylococcus aureus = experiment: Antibacterial activity against Staphylococcus aureus ATCC 25923 assessed as inhibition of bacterial growth incubated for 18 hrs by broth microdilution method
Bacillus subtilis = experiment: Antibacterial activity against Bacillus subtilis DSM10 assessed as inhibition of bacterial growth incubated for 18 hrs by broth microdilution method
Micrococcus luteus = experiment: Antibacterial activity against Micrococcus luteus DSM20030 assessed as inhibition of bacterial growth incubated for 18 hrs by broth microdilution method
Listeria monocytogenes = experiment: Antibacterial activity against Listeria monocytogenes DSM20600 assessed as inhibition of bacterial growth incubated for 48 hrs by BacTiter-Glo assay
[1] = test system: Mycolicibacterium smegmatis; experiment: Antibacterial activity against Mycobacterium smegmatis ATCC 607 assessed as inhibition of bacterial growth incubated for 48 hrs by BacTiter-Glo assay

MIC (Escherichia coli)	MIC (Staphylococcus aureus)	MIC (Bacillus subtilis)	MIC (Micrococcus luteus)	MIC (Listeria monocytogenes)	MIC [1]	SMILES
> 64 µg/mL	0.125 µg/mL (≈ 0.146 µM)	0.125 µg/mL (≈ 0.146 µM)	< 0.031 µg/mL	< 0.031 µg/mL	> 64 µg/mL	CC[C@H]1OC(O)(C(C)(O)C(=O)N[C@@H]2C(=O)N3NCCC[C@@H]3C(=O)N(O)[C@@H](C)C(=O)N(C)[C@@H](CC(C)C)C(=O)N3NCCC[C@@H]3C(=O)N(O)CC(=O)OC2C(C)C)CC[C@@H]1C (some centres not stated)
> 64 µg/mL	> 64 µg/mL	> 64 µg/mL	32 µg/mL (≈ 36.7 µM)	> 64 µg/mL	> 64 µg/mL	CC[C@H]1OC(O)(C(C)(O)C(=O)N[C@H](C(=O)N2NCCC[C@@H]2C(=O)N(O)[C@@H](C)C(=O)N(C)[C@@H](CC(C)C)C(=O)N2NCCC[C@@H]2C(=O)N(O)CC(=O)O)C(O)C(C)C)CC[C@@H]1C (some centres not stated)
